test system: FLU A (PR/8/34); test: Flu A Neuraminidase Antiviral Assay; format: cell-based; conditions: not given

Structure (SMILES) | EC50
CC1(c2cc(C(F)(F)F)ccn2)CCCC2N(CC3(C(F)(F)F)CC3)C(=O)c3c(O)c(=O)ccn3N21 (single isomer, unassigned) [Compound 52B, 7-hydroxy-1-methyl-5-((1-(trifluoromethyl)cyclopropyl)methyl)-1-(4-(trifluoromethyl)pyridin-2-yl)-1,2,3,4,4a,5-hexahydrodipyrido[1,2-b:2′,1′-f][1,2,4]triazine-6,8-dione] | > 2700 nM
CCN1C(=O)c2c(O)c(=O)ccn2N2C1CCCC2(C)c1cccc(C)n1 (single isomer, unassigned) [Compound 53A, 5-ethyl-7-hydroxy-1-methyl-1-(6-methylpyridin-2-yl)-1,2,3,4,4a,5-hexahydrodipyrido[1,2-b:2′,1′-f][1,2,4]triazine-6,8-dione] | > 810 nM
CCN1C(=O)c2c(O)c(=O)ccn2N2C1CCCC2(C)c1cccc(C)n1 (single isomer, unassigned) [Compound 53B, 5-ethyl-7-hydroxy-1-methyl-1-(6-methylpyridin-2-yl)-1,2,3,4,4a,5-hexahydrodipyrido[1,2-b:2′,1′-f][1,2,4]triazine-6,8-dione] | 8.3 nM
Cc1cccc(C2(C)CCCC3N(CC(F)F)C(=O)c4c(O)c(=O)ccn4N32)n1 (single isomer, unassigned) [Compound 54A, 5-(2,2-difluoroethyl)-7-hydroxy-1-methyl-1-(6-methylpyridin-2-yl)-1,2,3,4,4a,5-hexahydrodipyrido[1,2-b:2′,1′-f][1,2,4]triazine-6,8-dione] | > 810 nM
Cc1cccc(C2(C)CCCC3N(CC(F)F)C(=O)c4c(O)c(=O)ccn4N32)n1 (single isomer, unassigned) [Compound 54B, 5-(2,2-difluoroethyl)-7-hydroxy-1-methyl-1-(6-methylpyridin-2-yl)-1,2,3,4,4a,5-hexahydrodipyrido[1,2-b:2′,1′-f][1,2,4]triazine-6,8-dione] | 24.9 nM
CCN1C(=O)c2c(O)c(=O)ccn2N2C1CCCC2(C)c1cccc(C2CC2)n1 (single isomer, unassigned) [Compound 55A, 1-(6-cyclopropylpyridin-2-yl)-5-ethyl-7-hydroxy-1-methyl-1,2,3,4,4a,5-hexahydrodipyrido[1,2-b:2′,1′-f][1,2,4]triazine-6,8-dione] | > 810 nM
CCN1C(=O)c2c(O)c(=O)ccn2N2C1CCCC2(C)c1cccc(C2CC2)n1 (single isomer, unassigned) [Compound 55B, 1-(6-cyclopropylpyridin-2-yl)-5-ethyl-7-hydroxy-1-methyl-1,2,3,4,4a,5-hexahydrodipyrido[1,2-b:2′,1′-f][1,2,4]triazine-6,8-dione] | 18.5 nM
O=C1c2c(O)c(=O)ccn2N2C(c3ccccc3)CCCC2N1CC1CC1 (single isomer, unassigned) [Compound 56A, 5-(cyclopropylmethyl)-7-hydroxy-1-phenyl-1,2,3,4,4a,5-hexahydrodipyrido[1,2-b:2′,1′-f][1,2,4]triazine-6,8-dione] | > 8100 nM
O=C1c2c(O)c(=O)ccn2N2C(c3ccccc3)CCCC2N1CC1CC1 (single isomer, unassigned) [Compound 56B, 5-(cyclopropylmethyl)-7-hydroxy-1-phenyl-1,2,3,4,4a,5-hexahydrodipyrido[1,2-b:2′,1′-f][1,2,4]triazine-6,8-dione] | 6850 nM
O=C1c2c(O)c(=O)ccn2N2C(c3ccccc3)CCCC2N1CC1CC1 (single isomer, unassigned) [Compound 56C, 5-(cyclopropylmethyl)-7-hydroxy-1-phenyl-1,2,3,4,4a,5-hexahydrodipyrido[1,2-b:2′,1′-f][1,2,4]triazine-6,8-dione] | > 8100 nM
O=C1c2c(O)c(=O)ccn2N2C(c3ccccc3)CCCC2N1CC1CC1 (single isomer, unassigned) [Compound 56D, 5-(cyclopropylmethyl)-7-hydroxy-1-phenyl-1,2,3,4,4a,5-hexahydrodipyrido[1,2-b:2′,1′-f][1,2,4]triazine-6,8-dione] | 37.7 nM
CN1C(=O)c2c(O)c(=O)ccn2N2C(c3ccccc3)CCCCC12 (single isomer, unassigned) [Compound 57A, 4-hydroxy-6-methyl-11-phenyl-6a,7,8,9,10,11-hexahydro-3H-pyrido[1′,2′:1,6][1,2,4]triazino[2,3-a]azepine-3,5(6H)-dione] | 95.5 nM
CN1C(=O)c2c(O)c(=O)ccn2N2C(c3ccccc3)CCCCC12 (single isomer, unassigned) [Compound 57B, 4-hydroxy-6-methyl-11-phenyl-6a,7,8,9,10,11-hexahydro-3H-pyrido[1′,2′:1,6][1,2,4]triazino[2,3-a]azepine-3,5(6H)-dione] | > 8100 nM
CN1C(=O)c2c(O)c(=O)ccn2N2C(c3ccccc3)CCCC12C (single isomer, unassigned) [Compound 59A, 7-hydroxy-4a,5-dimethyl-1-phenyl-1,2,3,4,4a,5-hexahydrodipyrido[1,2-b:2′,1′-f][1,2,4]triazine-6,8-dione] | 7280 nM
CN1C(=O)c2c(O)c(=O)ccn2N2C(c3ccccc3)CCCC12C (single isomer, unassigned) [Compound 59B, 7-hydroxy-4a,5-dimethyl-1-phenyl-1,2,3,4,4a,5-hexahydrodipyrido[1,2-b:2′,1′-f][1,2,4]triazine-6,8-dione] | 12.1 nM
CN1C(=O)c2c(O)c(=O)ccn2N2C1CCC2(C)c1ccccc1 (single isomer, unassigned) [Compound 61A, 6-hydroxy-1,4-dimethyl-1-phenyl-2,3,3a,4-tetrahydro-1H-pyrido[2,1-f]pyrrolo[1,2-b][1,2,4]triazine-5,7-dione] | 122 nM
CN1C(=O)c2c(O)c(=O)ccn2N2C1CCC2(C)c1ccccc1 (single isomer, unassigned) [Compound 61B, 6-hydroxy-1,4-dimethyl-1-phenyl-2,3,3a,4-tetrahydro-1H-pyrido[2,1-f]pyrrolo[1,2-b][1,2,4]triazine-5,7-dione] | 2730 nM
CCC1(c2ccccc2)CCC2N(C)C(=O)c3c(O)c(=O)ccn3N21 (single isomer, unassigned) [Compound 62B, 1-ethyl-6-hydroxy-4-methyl-1-phenyl-2,3,3a,4-tetrahydro-1H-pyrido[2,1-f]pyrrolo[1,2-b][1,2,4]triazine-5,7-dione] | > 8100 nM
CCC1(c2ccccc2)CCC2N(C)C(=O)c3c(O)c(=O)ccn3N21 (single isomer, unassigned) [Compound 62C, 1-ethyl-6-hydroxy-4-methyl-1-phenyl-2,3,3a,4-tetrahydro-1H-pyrido[2,1-f]pyrrolo[1,2-b][1,2,4]triazine-5,7-dione] | 7490 nM
CCC1(c2ccccc2)CCC2N(C)C(=O)c3c(O)c(=O)ccn3N21 (single isomer, unassigned) [Compound 62D, 1-ethyl-6-hydroxy-4-methyl-1-phenyl-2,3,3a,4-tetrahydro-1H-pyrido[2,1-f]pyrrolo[1,2-b][1,2,4]triazine-5,7-dione] | 7970 nM

same assay, conditions: MDCK, 48 h

Structure (SMILES) | EC50
CN1C(=O)c2c(O)c(=O)ccn2N2C(c3ccccc3)CCC12 (single isomer, unassigned) [Compound 60A, 6-hydroxy-4-methyl-1-phenyl-2,3,3a,4-tetrahydro-1H-pyrido[2,1-f]pyrrolo[1,2-b][1,2,4]triazine-5,7-dione] | > 8100 nM

Reference: US20240018145A1, “[…]-DEPENDENT EN[…] TREATING OR […]” (priority 2020, published 2024)
